Molecules are shown by their SMILES. Active and inactive are the calls of the source.

Holding throughout (format): functional
Test [1] deals with T1, Sentrin-specific protease 6 (Homo sapiens, UniProt Q9GZR1).
T1 sequence (Q9GZR1 whole entry): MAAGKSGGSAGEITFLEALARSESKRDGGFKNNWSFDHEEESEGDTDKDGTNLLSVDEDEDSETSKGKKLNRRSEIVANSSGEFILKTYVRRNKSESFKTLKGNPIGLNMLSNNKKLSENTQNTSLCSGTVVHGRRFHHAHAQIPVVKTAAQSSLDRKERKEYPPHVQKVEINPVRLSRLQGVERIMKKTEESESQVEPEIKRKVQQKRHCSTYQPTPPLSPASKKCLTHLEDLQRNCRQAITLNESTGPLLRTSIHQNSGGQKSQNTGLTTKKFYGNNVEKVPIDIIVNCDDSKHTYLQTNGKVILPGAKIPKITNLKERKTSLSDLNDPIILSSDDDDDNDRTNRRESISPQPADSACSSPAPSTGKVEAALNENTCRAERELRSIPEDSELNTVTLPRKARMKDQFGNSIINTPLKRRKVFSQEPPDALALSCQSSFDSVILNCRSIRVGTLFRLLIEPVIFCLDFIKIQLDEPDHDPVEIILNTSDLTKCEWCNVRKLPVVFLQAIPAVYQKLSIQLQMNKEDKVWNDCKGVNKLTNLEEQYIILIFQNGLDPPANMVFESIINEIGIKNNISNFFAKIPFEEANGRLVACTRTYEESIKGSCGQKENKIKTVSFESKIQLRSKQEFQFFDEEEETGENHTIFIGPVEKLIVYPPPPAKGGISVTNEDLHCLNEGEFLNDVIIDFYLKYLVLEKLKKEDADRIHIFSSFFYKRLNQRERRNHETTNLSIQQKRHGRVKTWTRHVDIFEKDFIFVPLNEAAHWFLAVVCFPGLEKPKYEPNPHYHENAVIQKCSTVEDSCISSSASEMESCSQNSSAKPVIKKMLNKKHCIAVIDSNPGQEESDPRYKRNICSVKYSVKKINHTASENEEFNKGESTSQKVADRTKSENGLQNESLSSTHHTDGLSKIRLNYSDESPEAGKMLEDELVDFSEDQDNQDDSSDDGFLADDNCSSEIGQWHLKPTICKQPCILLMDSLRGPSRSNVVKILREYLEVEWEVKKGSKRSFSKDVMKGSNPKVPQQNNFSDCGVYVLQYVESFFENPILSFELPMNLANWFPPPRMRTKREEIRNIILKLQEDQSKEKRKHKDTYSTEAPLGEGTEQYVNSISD

In test [2] the target is Cyclin-dependent kinase 1 (Homo sapiens, UniProt P06493).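 Further: Kinome-wide panel profiling, with the target listed as panel member CDC2.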
Test [3] concerns the target Mitogen-activated protein kinase kinase kinase 20 (Homo sapiens, UniProt Q9NYL2).
For test [4], the target named is Calcium/calmodulin-dependent protein kinase type 1 (Homo sapiens, UniProt Q14012).
For test [5], the target named is Serine/threonine-protein kinase Nek4 (Homo sapiens, UniProt P51957).
Test [6] concerns the target Casein kinase II subunit alpha (Homo sapiens, UniProt P68400).
Test [7] deals with Calcium/calmodulin-dependent protein kinase type II subunit gamma (Homo sapiens, UniProt Q13555).
Test [8] deals with MAP/microtubule affinity-regulating kinase 3 (Homo sapiens, UniProt P27448).
The target of test [9] is Protein kinase C gamma type (Homo sapiens, UniProt P05129).
Test [10] has as its target Mitogen-activated protein kinase 13 (Homo sapiens, UniProt O15264).
For test [11], the target named is Calcium/calmodulin-dependent protein kinase type II subunit beta (Homo sapiens, UniProt Q13554).
Test [12] deals with MAP kinase-activated protein kinase 5 (Homo sapiens, UniProt Q8IW41).
Test [13] deals with Testis-specific serine/threonine-protein kinase 2 (Homo sapiens, UniProt Q96PF2).
Another test deals with Misshapen-like kinase 1 (Homo sapiens, UniProt Q8N4C8).
In test [14] the target is Serine/threonine-protein kinase PAK 1 (Homo sapiens, UniProt Q13153).
The target of test [15] is Serine/threonine-protein kinase 17A (Homo sapiens, UniProt Q9UEE5).
Test [16] has as its target Interleukin-1 receptor-associated kinase 4 (Homo sapiens, UniProt Q9NWZ3).
In test [17] the target is Homeodomain-interacting protein kinase 2 (Homo sapiens, UniProt Q9H2X6).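 Further: measured within a kinome-wide kinase profiling panel, HIPK2 being one panel member.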
For test [18], the target named is Ribosomal protein S6 kinase beta-1 (Homo sapiens, UniProt P23443).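 Further: measured as one member of a kinome-wide profiling panel.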
Test [19] addresses MAP kinase-activated protein kinase 2 (Homo sapiens, UniProt P49137).
Test [20] deals with Cyclin-dependent kinase 2 (Homo sapiens, UniProt P24941).
Test [21] deals with Maternal embryonic leucine zipper kinase (Homo sapiens, UniProt Q14680).
For test [22], the target named is RAC-gamma serine/threonine-protein kinase (Homo sapiens, UniProt Q9Y243).
The target of test [23] is Ribosomal protein S6 kinase alpha-5 (Homo sapiens, UniProt O75582).
The target of test [24] is Dual specificity tyrosine-phosphorylation-regulated kinase 1A (Homo sapiens, UniProt Q13627).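 Further: measured against DYRK1A as one member of a broad kinome profiling panel.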
The target of test [25] is Hepatocyte growth factor receptor (Homo sapiens, UniProt P08581).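 Further: kinase panel profiling across the kinome, with MET as the panel member.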
Test [26] has as its target Proto-oncogene tyrosine-protein kinase receptor Ret (Homo sapiens, UniProt P07949).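 Further: measured within a kinome-wide profiling panel, RET as the panel member.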
The target in test [27] is Leucine-rich repeat serine/threonine-protein kinase 2 (Homo sapiens, UniProt Q5S007).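 Further: value from a broad kinome-wide panel profiling study in which LRRK2 was one of the kinases tested.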
For test [28], the target named is Rho-associated protein kinase 1 (Homo sapiens, UniProt Q13464).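 Further: measured within a broad kinome-wide panel profiling many kinases.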
The target of another test is Activin receptor type-1 (Homo sapiens, UniProt Q04771). Description: Navigating the Kinome. Panel member name: ACVR1.
The target in test [29] is Platelet-derived growth factor receptor beta (Homo sapiens, UniProt P09619).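 Further: value comes from a kinome panel, with PDGFRB tested as one panel member.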
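Wherever IC50 is given: Luminescence-based dose-response confirmatory assay of SENP6 inhibition, following up an ultra-high-throughput screen.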

Chain of Misshapen-like kinase 1 (Q8N4C8 whole entry): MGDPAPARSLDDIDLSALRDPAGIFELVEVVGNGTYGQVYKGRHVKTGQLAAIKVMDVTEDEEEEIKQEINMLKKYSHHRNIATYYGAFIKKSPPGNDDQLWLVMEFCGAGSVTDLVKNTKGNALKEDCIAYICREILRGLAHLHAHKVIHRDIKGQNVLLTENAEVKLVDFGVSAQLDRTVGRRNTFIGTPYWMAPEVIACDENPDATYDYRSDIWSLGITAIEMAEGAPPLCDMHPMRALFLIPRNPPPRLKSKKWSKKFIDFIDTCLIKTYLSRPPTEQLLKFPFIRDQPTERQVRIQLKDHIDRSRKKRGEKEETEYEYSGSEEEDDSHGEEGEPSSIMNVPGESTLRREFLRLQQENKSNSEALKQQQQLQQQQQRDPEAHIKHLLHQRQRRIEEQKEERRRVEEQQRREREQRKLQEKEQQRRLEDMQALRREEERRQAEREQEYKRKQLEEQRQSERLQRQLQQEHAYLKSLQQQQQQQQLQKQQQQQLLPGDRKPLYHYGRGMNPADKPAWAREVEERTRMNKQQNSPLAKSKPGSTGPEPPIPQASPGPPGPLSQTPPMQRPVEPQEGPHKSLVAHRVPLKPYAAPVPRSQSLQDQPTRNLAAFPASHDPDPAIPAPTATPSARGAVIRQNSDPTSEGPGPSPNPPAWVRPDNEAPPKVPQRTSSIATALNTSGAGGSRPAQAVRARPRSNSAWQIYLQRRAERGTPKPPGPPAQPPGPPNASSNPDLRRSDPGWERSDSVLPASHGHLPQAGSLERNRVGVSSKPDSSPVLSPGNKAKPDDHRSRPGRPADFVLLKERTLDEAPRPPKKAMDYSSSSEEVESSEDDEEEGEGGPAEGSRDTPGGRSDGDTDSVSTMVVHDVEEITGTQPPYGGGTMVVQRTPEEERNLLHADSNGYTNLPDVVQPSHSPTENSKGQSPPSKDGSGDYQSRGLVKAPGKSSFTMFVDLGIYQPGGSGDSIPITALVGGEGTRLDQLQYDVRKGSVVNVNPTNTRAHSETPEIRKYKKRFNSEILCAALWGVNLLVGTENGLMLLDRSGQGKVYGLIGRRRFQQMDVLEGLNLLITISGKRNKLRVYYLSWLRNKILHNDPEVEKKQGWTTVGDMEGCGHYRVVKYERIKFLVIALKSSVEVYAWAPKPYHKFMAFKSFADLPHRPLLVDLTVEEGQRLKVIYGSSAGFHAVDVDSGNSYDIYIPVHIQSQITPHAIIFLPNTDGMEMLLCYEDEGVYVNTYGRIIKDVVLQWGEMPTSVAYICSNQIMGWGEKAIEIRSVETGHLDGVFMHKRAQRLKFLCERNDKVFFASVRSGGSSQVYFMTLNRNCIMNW
Chain of Testis-specific serine/threonine-protein kinase 2 (Q96PF2 whole entry): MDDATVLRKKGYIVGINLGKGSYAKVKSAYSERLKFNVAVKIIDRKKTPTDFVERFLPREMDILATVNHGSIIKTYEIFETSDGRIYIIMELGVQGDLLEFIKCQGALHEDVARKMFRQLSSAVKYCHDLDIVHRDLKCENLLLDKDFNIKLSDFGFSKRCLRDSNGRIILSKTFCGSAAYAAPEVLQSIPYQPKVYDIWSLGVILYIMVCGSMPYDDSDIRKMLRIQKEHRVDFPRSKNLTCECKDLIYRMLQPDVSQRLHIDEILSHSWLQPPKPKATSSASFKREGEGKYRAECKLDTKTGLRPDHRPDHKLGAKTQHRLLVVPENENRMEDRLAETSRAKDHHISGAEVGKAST
Chain of MAP kinase-activated protein kinase 2 (P49137 whole entry): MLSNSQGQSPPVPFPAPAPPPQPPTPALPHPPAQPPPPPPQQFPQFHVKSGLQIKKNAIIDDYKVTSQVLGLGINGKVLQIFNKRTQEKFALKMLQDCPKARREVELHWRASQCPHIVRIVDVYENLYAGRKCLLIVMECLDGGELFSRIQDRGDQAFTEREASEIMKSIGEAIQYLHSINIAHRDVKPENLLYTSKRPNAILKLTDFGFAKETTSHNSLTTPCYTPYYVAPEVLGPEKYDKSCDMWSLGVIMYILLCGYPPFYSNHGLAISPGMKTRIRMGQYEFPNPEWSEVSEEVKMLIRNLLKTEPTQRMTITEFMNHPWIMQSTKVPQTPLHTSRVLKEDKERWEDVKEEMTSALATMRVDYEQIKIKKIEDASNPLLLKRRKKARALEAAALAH
Chain of RAC-gamma serine/threonine-protein kinase (Q9Y243 whole entry): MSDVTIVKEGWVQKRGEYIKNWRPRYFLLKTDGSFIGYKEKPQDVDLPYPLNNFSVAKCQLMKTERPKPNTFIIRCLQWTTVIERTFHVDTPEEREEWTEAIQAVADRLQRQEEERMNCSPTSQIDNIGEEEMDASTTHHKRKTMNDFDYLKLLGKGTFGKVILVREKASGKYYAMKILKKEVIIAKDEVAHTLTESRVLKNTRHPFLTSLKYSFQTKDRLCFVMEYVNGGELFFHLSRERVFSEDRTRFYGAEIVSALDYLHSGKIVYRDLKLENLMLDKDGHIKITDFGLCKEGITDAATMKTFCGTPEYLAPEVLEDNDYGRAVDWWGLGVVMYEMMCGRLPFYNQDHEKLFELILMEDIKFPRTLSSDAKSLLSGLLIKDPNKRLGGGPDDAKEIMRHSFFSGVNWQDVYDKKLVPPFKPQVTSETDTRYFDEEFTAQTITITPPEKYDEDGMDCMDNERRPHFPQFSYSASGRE
Chain of Serine/threonine-protein kinase Nek4 (P51957 whole entry): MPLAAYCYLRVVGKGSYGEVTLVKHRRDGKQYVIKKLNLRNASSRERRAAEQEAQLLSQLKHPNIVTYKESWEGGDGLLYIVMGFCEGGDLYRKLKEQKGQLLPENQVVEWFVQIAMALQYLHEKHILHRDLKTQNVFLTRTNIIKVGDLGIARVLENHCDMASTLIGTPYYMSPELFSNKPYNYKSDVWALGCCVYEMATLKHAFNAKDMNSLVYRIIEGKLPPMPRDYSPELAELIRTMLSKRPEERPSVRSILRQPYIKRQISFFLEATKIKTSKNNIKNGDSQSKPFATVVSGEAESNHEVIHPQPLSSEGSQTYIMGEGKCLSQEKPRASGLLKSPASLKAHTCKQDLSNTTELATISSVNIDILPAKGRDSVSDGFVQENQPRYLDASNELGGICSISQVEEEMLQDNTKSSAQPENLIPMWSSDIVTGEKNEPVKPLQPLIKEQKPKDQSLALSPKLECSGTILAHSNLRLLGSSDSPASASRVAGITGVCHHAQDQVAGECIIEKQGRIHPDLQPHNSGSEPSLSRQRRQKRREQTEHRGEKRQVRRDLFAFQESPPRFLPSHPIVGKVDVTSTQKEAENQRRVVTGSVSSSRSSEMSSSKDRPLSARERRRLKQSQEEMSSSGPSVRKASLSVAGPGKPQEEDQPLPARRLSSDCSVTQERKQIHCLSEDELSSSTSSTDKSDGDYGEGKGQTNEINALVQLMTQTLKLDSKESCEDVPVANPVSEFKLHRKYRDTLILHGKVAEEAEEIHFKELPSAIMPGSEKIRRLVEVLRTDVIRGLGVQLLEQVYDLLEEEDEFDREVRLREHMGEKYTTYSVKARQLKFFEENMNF
Chain of Ribosomal protein S6 kinase alpha-5 (O75582 whole entry): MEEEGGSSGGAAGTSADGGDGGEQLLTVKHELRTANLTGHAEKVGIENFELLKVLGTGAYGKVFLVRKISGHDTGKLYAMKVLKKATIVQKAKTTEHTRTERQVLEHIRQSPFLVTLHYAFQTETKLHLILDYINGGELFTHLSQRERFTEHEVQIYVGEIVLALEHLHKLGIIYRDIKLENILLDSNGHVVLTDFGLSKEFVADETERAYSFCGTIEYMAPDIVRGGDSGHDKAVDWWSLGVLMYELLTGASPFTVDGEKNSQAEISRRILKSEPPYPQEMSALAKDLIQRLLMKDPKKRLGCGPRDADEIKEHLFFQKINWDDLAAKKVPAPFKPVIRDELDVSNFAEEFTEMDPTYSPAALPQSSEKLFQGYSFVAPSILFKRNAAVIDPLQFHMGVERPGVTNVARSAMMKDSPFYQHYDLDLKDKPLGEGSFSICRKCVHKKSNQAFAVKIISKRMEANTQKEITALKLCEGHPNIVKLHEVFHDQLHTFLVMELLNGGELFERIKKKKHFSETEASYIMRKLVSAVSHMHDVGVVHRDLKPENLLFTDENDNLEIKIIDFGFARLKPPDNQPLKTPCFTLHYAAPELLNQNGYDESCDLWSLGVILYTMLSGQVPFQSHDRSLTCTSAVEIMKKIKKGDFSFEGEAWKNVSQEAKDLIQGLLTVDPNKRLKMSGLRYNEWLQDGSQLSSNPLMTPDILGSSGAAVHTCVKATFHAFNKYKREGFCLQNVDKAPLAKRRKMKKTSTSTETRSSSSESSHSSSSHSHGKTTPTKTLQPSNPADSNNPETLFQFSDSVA
Chain of Calcium/calmodulin-dependent protein kinase type II subunit beta (Q13554 whole entry): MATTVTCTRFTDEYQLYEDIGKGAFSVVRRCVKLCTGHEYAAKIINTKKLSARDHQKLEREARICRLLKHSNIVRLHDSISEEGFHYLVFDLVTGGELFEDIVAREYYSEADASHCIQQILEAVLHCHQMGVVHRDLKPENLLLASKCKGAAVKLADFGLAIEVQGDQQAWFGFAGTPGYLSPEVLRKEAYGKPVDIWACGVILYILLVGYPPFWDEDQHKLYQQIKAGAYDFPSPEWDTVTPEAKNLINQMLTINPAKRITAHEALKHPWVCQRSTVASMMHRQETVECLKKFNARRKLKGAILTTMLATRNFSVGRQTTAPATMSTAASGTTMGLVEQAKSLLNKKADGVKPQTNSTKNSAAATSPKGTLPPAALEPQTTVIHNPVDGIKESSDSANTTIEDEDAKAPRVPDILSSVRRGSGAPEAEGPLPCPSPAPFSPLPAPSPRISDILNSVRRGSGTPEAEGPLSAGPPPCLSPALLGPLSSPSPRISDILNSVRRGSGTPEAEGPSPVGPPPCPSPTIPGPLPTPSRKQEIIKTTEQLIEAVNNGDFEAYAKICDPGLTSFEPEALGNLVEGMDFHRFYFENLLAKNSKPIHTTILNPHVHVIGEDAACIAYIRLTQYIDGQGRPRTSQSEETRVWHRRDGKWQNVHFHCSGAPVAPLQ

Broadly, the IC50 is the concentration needed to halve the response being measured. As for `COc1ccc(-n2c(NC(=O)c3ccco3)c(C#N)c3nc4ccccc4nc32)cc1`, the IC50 in [1] is 4070 nM (active).

The Ki is a measure of affinity in units of concentration, obtained from inhibition or displacement. On to `Cc1n[nH]c2ccc(-c3cncc(OCC(N)Cc4ccc(Cl)c(Cl)c4)c3)cc12` (stereo unspecified), for which the Ki in test [2] is 50.1 nM (active); in test [3] it was 7940 nM (active); in test [4], 251 nM (active); in [5], 126 nM (active); in test [6] it was > 6310 nM (inactive); in [7], 15.8 nM (active). For the same compound, the Ki in test [8] is 316 nM (active); in [9] it was 15.8 nM (active); in test [10], 631 nM (active); in [11], 251 nM (active); in test [12], > 1580 nM (inactive); in test [13], > 1580 nM (inactive). Also, the Ki is 20 nM (active) on Misshapen-like kinase 1; 794 nM (active) in [14]; 398 nM (active) in [15]; 126 nM (active) in test [16]; 126 nM (active) in test [17]; 25.1 nM (active) in test [18]. In addition, the inhibition constant (Ki) in test [19] was 3980 nM (active); in test [20], 25.1 nM (active); in [21] it was 200 nM (active); in test [22] it was 3.98 nM (active); in [23], 1.26 nM (active).

Consider `[2H]C([2H])([2H])Oc1cccc(C(C)NC(=O)c2sc(-c3ccncc3)nc2C)c1` (stereo unspecified), for which the Ki in test [24] is > 2000 nM (inactive); in test [25], > 2510 nM (inactive); in test [26] it was > 3160 nM (inactive); in test [27], > 2510 nM (inactive); in [28], 12.6 nM (active); on Activin receptor type-1, > 3980 nM (inactive). Further, in test [29], the Ki was > 2000 nM (inactive).
